Consider 17 compounds from patent US4530932A, “4-(1H-indol-3-yl)-α-methyl-piperidine-1-ethanol derivatives” (Roussel Uclaf, priority 1982, dated 1985).

Counter-ions that a name gives are not always drawn. Like-named read-outs stand apart in the source and are kept apart here.

The subject of series [1] is Rat arteries (arterial contractions, entry of calcium ions into the cells of smooth muscles). As to the kind of experiment: In vitro anticalcic activity (inhibition of potassium-depolarized, calcium-induced contractions of isolated rat arteries). The conditions noted are these: dose inhibiting by 50% the contractions caused by potassium ions (100 mM), 37° C., read-out: CI50 (the source's name). It counts as cell-based. The procedure:
Rat arteries decoupled in a spiral were attached to a tension collector and were maintained in tanks containing 2.5 ml of Krebs-sodium bicarbonate buffer (NaCl: 120.8 mM, KCl: 5.9 mM, MgCl2 : 1.2 mM, NaH2 PO4 : 1.2 mM, NaHCO3 : 15.5 mM, glucose: 12.6 mM), at 37° C. covered with a 95%-5% oxygen-carbon dioxide mixture. The preparations were depolarized with a buffered solution containing 100 mM of potassium ions (NaCl: 26.7 mM, KCl: 100 mM, MgCl2 : 1.2 mM, NaH2 PO4 : 1.2 mM, NaHCO3 : 15.5 mM, glucose 12.6 mM).
A volume of 25 μl of calcium chloride was added to the mixture in a manner to obtain a range of increasing concentrations of calcium ions from 0.1 to 3.0 mM and the contractions of the artery were measured to obtain a control. The operation with range of calcium ions was repeated every 15 minutes and the preparation was washed 4 times after each range. When a stable response was obtained, the operation with the range of calcium ions was effected in the presence of varying concentrations of test compounds until a stable response was obtained.
The arterial contractions depend on the entry of calcium ions into the cells of smooth muscles and are provoked by depolarization of smooth muscles by potassium ions and by action of noradrenaline freed by presynapthic level. By recommencing the operation with denerved arteries by the action of 6-hydroxy-dopamine, the specific action due to noradrenaline is suppressed.

Series [2] concerns cardiac rhythm troubles in guinea pigs. As to the kind of experiment: Antiarythmic action (K-strophanthine and adrenaline induced cardiac rhythm troubles). The format is in vivo, guinea pig. The conditions noted are these: Cavia porcellus, 1 h, oral 10 mg/kg, one hour before K-strophanthine and adrenaline perfusion, read-out: Percentage of protection (lengthening of the time of appearance of cardiac rhythm troubles as compared to controls). How it is done: Male guinea pigs weighing between 450 and 500 g were tracheotomized while anesthesized by intraperitoneal administration of […] of urethane and were subjected to artifical respiration of 40 to 50 breaths of 5 ml per minute. Needles were subcutaneously implanted to register an electrocardiogram of the guinea pigs for the signal of D II derivation. The test products were orally administered and one hour later, the jugular vein of the guinea pigs were perfused with 0.5 ml per minute of a solution of 150 γ/ml of K-strophanthine and 0.5 ml per minute of a solution of 5 γ/ml of adrenaline and the number of times of the appearance of cardiac rhythm troubles was noted. The results are expressed in percentage of protection with an oral dose of 10 mg/kg of test product that is to say the percentage of lengthening of the time of appearance of cardiac rhythm troubles as compared to the controls.

The test system of series [3] is α1 adrenergic receptors. As to the kind of experiment: Affinity for α1 adrenergic receptors (3H prazosine displacement, rat brain). The format is binding. The conditions noted are these: relative to phentolamine (ARL=100×(CB/CX)), 25° C., pH 7.7. The procedure: After centrifugation at 30,000 g for 15 minutes at 0° to 4° C., the culot was suspended in 240 ml of buffer Tris HCl 50 mM (pH-7.7) and the suspension was centrifuged at 30,000 g for 20 minutes at 0° to 4° C. The new culot was suspended in 480 ml of buffer Krebs Tris HCl (pH of 7.7-50 mM) and 2 ml of the suspension in the presence of 3H prazosine at a concentration of […] alone and with increasing concentrations of the test compound or with non-radioactive phentolamine at a concentration of 10^-5 M to determine the non-specific fixation was incubated at 25° C. for 30 minutes.
The incubated suspensions were filtered through Whatman FG/C and the filtered were washed with 3 times with 5 ml of buffer Krebs Tris HCl-pH of 7.7 at 0° to 4° C. The radioactivity of the filters was measured by liquid scintillation and the affinity of the test compound for α1 adrenergic receptors was compared relative to phentolamine as the reference compound by the formula
CD=concentration of phentolamine inhibiting by 50% the specific fixation of 3H prazosine.
CX=concentration of test product inhibiting by 50% the specific fixation of 3H prazosine.

Series [4] has as its system mice. As to the kind of experiment: Acute toxicity (DL0, oral). It counts as in vivo, mouse. Set-up: unit not given here.
In series [5] the test system is carotidien arterial pressure in rats. As to the kind of experiment: Hypotensive activity (carotidien arterial pressure in anesthesized rats). It counts as in vivo, rat (Wistar). To be noted: rat, intravenous. The procedure:
The hypotensive activity was studied on male rats of the Wistar strain weighing about 300 g and anesthesized with 50 mg/kg of nembutal intraveinously. The test products were administered intraveinously by the jugular vein and the carotidien arterial pressure was measured before and after administration of the test compounds. The variations expressed in percentage of arterial pressure after administration with respect to the initial pressure is reported in Table IV.

The mark [6] stands for this setting: 1 min, 1 minute, read-out: % Variation of arterial pressure after administration, 1 minute.
[7] abbreviates: 5 min, 5 minutes, read-out: % Variation of arterial pressure after administration, 5 minutes.
Where [8] appears, read: 10 min, 10 minutes, read-out: % Variation of arterial pressure after administration, 10 minutes.
The mark [9] stands for this setting: 0.5 h, 30 minutes, read-out: % Variation of arterial pressure after administration, 30 minutes.

On to `OC(COc1ccccc1)CN1CCC(c2c[nH]c3ccccc23)CC1` (stereo not drawn) [Example 3, 4-(1H--indol-3-yl)-α-[phenoxymethyl]-piperidine-1-ethanol hydrochloride], for which the IC50 in series [1] was 2.5 µM. Also, in series [2], the change in vivo at 10 mg/kg turned out to be 55%.
On to `O=[N+]([O-])c1ccc(OCC(O)CN2CCC(c3c[nH]c4ccccc34)CC2)cc1` (stereo not drawn) [Example 5, 4-(1H--indol-3-yl)-α-[4-nitrophenoxymethyl]-piperidine-1-ethanol hydrochloride], for which the IC50 in series [1] is 4.5 µM. In addition, the change in vivo at 10 mg/kg in series [2] is 82%. The “% Arl (relative affinity for α1 adrenergic receptors)” value in series [3] is 77%. For the same compound, the “DL0 (maximum dose which did not cause any deaths after 8 days)” value in series [4] is listed as over 200.
As for `COc1ccccc1OCC(O)CN1CCC(c2c[nH]c3ccccc23)CC1` (stereo not drawn) [Example 14, 4-(1H--indol-3-yl)-α-[2-methoxyphenoxymethyl]-piperidine-1-ethanol hydrochloride], in series [1], the IC50 was determined as 11 µM. Moreover, the change in vivo at 10 mg/kg in series [2] came out at 83%. Further, the “DL0 (maximum dose which did not cause any deaths after 8 days)” value in series [4] is recorded as over 100.
Taken in the same sequence, the figures for `Cc1cccc(OCC(O)CN2CCC(c3c[nH]c4ccccc34)CC2)c1` (stereo not drawn) [Example 18, 4-(1H--indol-3-yl)-α-[3-methylphenoxymethyl]-piperidine-1-ethanol hydrochloride] were 2 µM, 23% and over 100.
With `Nc1ccccc1OCC(O)CN1CCC(c2c[nH]c3ccccc23)CC1` (stereo not drawn) [Example 19, 4-(1H--indol-3-yl)-α-[2-amino-phenoxymethyl]-piperidine-1-ethanol fumarate], the change in vivo at 10 mg/kg in series [2] came out at 165%. For the same compound, the “DL0 (maximum dose which did not cause any deaths after 8 days)” value in series [4] is given as over 100.
As for `CC(=O)Nc1ccccc1OCC(O)CN1CCC(c2c[nH]c3ccccc23)CC1` (stereo not drawn) [Example 20, 4-(1H--indol-3-yl)-α-[2-acetamidophenoxymethyl]-piperidine-1-ethanol hydrochloride], in series [3], the “% Arl (relative affinity for α1 adrenergic receptors)” value was 311%.
For `OC(COc1cccc(Cl)c1)CN1CCC(c2c[nH]c3ccccc23)CC1` (stereo not drawn) [Example 22, 4-(1H--indol-3-yl)-α-[3-chloro-phenoxymethyl]-piperidine-1-ethanol hydrochloride], in series [1], the IC50 was 1.8 µM. Further, in series [3], the “% Arl (relative affinity for α1 adrenergic receptors)” value is 70%. The “DL0 (maximum dose which did not cause any deaths after 8 days)” value in series [4] was determined as 80.
Consider `COc1cccc(OCC(O)CN2CCC(c3c[nH]c4ccccc34)CC2)c1` (stereo not drawn) [Example 23, 4-(1H--indol-3-yl)-α-[3-methoxyphenoxymethyl]-piperidine-1-ethanol hydrochloride], for which, in series [1], the IC50 stood at 2.7 µM. In series [2], the change in vivo at 10 mg/kg amounted to 73%. In addition, the change in vivo at 1 mg/kg in series [5] (setting [6]) is -7%; in series [5] (setting [7]), -19%; in series [5] (setting [8]), 14%; in series [5] (setting [9]), -17%. The “DL0 (maximum dose which did not cause any deaths after 8 days)” value in series [4] is over 200.
Regarding `C=CCOc1ccccc1OCC(O)CN1CC=C(c2c[nH]c3ccccc23)CC1` (stereo not drawn) [Example 24, 4-(1H--indol-3-yl)-α-[2-prop-2-enyloxy)-phenoxymethyl]-1,2,3,6,tetrahydropyridine-1-ethanol fumarate], in series [1], the IC50 worked out at 0.7 µM. Moreover, the change in vivo at 1 mg/kg in series [5] (setting [6]) was -10%; in series [5] (setting [7]) it was -16%; in series [5] (setting [8]) it was -11%; in series [5] (setting [9]), -17%. Besides, the “DL0 (maximum dose which did not cause any deaths after 8 days)” value in series [4] is over 200.
Take `OC(COc1ccc(C(F)(F)F)cc1)CN1CCC(c2c[nH]c3ccccc23)CC1` (stereo not drawn) [Example 25, 4-(1H--indol-3-yl)-α-[4-trifluoramethylphenoxymethyl]-piperidine-1-ethanol hydrochloride]: the IC50 in series [1] stood at 1.5 µM. Moreover, in series [2], the change in vivo at 10 mg/kg was 35%. Moreover, the change in vivo at 1 mg/kg in series [5] (setting [6]) was -5%; in series [5] (setting [7]), -14%; in series [5] (setting [8]) it was -6%; in series [5] (setting [9]), -14%. In series [4], the “DL0 (maximum dose which did not cause any deaths after 8 days)” value is given as 100.
Regarding `C=CCOc1ccc(OCC(O)CN2CCC(c3c[nH]c4ccccc34)CC2)cc1` (stereo not drawn) [Example 26, 4-(1H--indol-3-yl)-α-[4-prop-2-enyloxy)-phenoxymethyl]-piperidine-1-ethanol hydrochloride], the IC50 in series [1] was found to be 1.5 µM. In series [2], the change in vivo at 10 mg/kg is 68%. Also, the “DL0 (maximum dose which did not cause any deaths after 8 days)” value in series [4] is listed as over 200.
Regarding `COc1ccc(OCC(O)CN2CCC(c3c[nH]c4ccccc34)CC2)cc1OC` (stereo not drawn) [Example 27, 4-(1H--indol-3-yl)-α-[3,4-dimethoxyphenoxymethyl]-piperidine-1-ethanol hydrochloride], in series [2], the change in vivo at 10 mg/kg came out at 115%. Moreover, the “DL0 (maximum dose which did not cause any deaths after 8 days)” value in series [4] amounted to 80.
For the compound `C=CCOc1cccc(OCC(O)CN2CCC(c3c[nH]c4ccccc34)CC2)c1` (stereo not drawn) [Example 28, 4-(1H--indol-3-yl)-α-[3-(prop-2-enyloxy)-phenoxymethyl]-piperidine-1-ethanol hydrochloride], the IC50 in series [1] was 2.4 µM. Further, the change in vivo at 10 mg/kg in series [2] came out at 103%. The change in vivo at 1 mg/kg in series [5] (setting [6]) is -5%; in series [5] (setting [7]), -10%; in series [5] (setting [8]) it was -6%; in series [5] (setting [9]) it was -9%. For the same compound, the “DL0 (maximum dose which did not cause any deaths after 8 days)” value in series [4] was over 100.
Consider `OC(COc1ccc(Cl)c(Cl)c1)CN1CCC(c2c[nH]c3ccccc23)CC1` (stereo not drawn) [Example 29, 4-(1H--indol-3-yl)-α-[3,4-dichlorophenoxymethyl]-piperidine-1-ethanol hydrochloride], for which the IC50 in series [1] came out at 2.4 µM. In addition, the change in vivo at 10 mg/kg in series [2] came to 53%. Moreover, the “DL0 (maximum dose which did not cause any deaths after 8 days)” value in series [4] is listed as over 100.
Regarding `Oc1cccc(OCC(O)CN2CCC(c3c[nH]c4ccccc34)CC2)c1` (stereo not drawn) [Example 30, 4-(1H--indol-3-yl)-α-[3-hydroxyphenoxymethyl]-piperidine-1-ethanol hydrochloride], in series [2], the change in vivo at 10 mg/kg came to 86%. Besides, the “DL0 (maximum dose which did not cause any deaths after 8 days)” value in series [4] is over 100.
Consider `C=CCOc1ccccc1OCC(O)CN1CCC(c2cn(C)c3ccccc23)CC1` (stereo not drawn) [Example 31, 4-(1-methyl-1H--indol-3-yl)-α-[2-(prop-2-enyloxy)-phenoxymethyl]-piperidine-1-ethanol fumarate], for which the IC50 in series [1] turned out to be 3 µM. For the same compound, in series [2], the change in vivo at 10 mg/kg was 49%.
Taken in the same sequence, the figures for `C=CCOc1ccccc1OCC(O)CN1CCC(c2c[nH]c3ccc(OC)cc23)CC1` (stereo not drawn) [Example 32, 4-(5-methoxy-1H--indol-3-yl)-α -2-(prop-2-enyloxy)-phenoxymethyl]-piperidine-1-ethanol fumarate] were 1.9 µM and 20%.
